Reference: patent publication US20140088314A1, “BIFUNCTIONAL CHELATING AGENTS” (GENERAL ELECTRIC COMPANY, priority 2012, published 2014)

How the values were obtained:
mammary MATBIII tumor = assay: Dynamic contrast enhanced (DCE) MR tumor imaging; type: in vivo, SCID mice; conditions: dose 0.2 mmol/kg Gd, Fe, mammary MBIII rodent tumor model
Procedure: Cell Preparation: MATBIII breast cells (available from ATCC®) were trypsinized using 1×trypsin-EDTA. The cells were washed using 1× phosphate buffered saline (PBS) and aliquots of 2×10^6 cells were made in 1×PBS (100 uL). Prior to injection into the subject, 50 μL of basement membrane matrix (Matrigel®, BD Biosciences) was added to each aliquot.
Tumor Induction: All procedures involving animals were completed under protocols approved by the GE Global Research Institutional Animal Care and Use Committee. Female, 5-7 weeks old, SCID mice (Charles River Laboratories) were briefly anesthetized with 2% isoflurane and injected with 1×10^6 MATBIII breast cancer cells in 1×PBS (100 μL) and Matrigel SC to their left flank. The animals were monitored for 7 days post tumor cell injections at which point, precontrast agent MR images of the resulting lesions, typically 1 cm in diameter, were collected using the sequences described below.

[1] = Hydrodynamic size assay (dynamic light scattering); type: physicochemical; conditions: size printed beside agent name in Table 8
Procedure: The dilution was carried out to yield approximately 20,000 counts per second during the DLS measurement and the sample was allowed to equilibrate for 10 minutes in the instrument prior to data collection.

Q: Which results are given for `CNC[C@H](O)[C@@H](O)[C@H](O)[C@H](O)CO.CNC[C@H](O)[C@@H](O)[C@H](O)[C@H](O)CO.O=C([O-])CN(CCN(CC(=O)[O-])CC(=O)O)CCN(CC(=O)[O-])CC(=O)O.[Gd+3]` [Magnevist - Gd]?
A: Tumor-to-muscle signal enhancement ratio, Tumor: Muscle, Average (mammary MATBIII tumor): 3.6; Agent size [1]: Magnevist - Gd (1 nm)
